In US5296496A, “2-saccharinylmethyl phosphates, phosphonates and phosphinates useful as proteolytic enzyme inhibitors and compositions and method of use thereof” (Sterling Winthrop Inc., priority 1992, dated 1994) one finds Ki data, which are given here for one compound.

Structures are written as SMILES.

This assay has as its target T1, human leukocyte elastase (HLE) (Homo sapiens, UniProt P08246).
T1 sequence (P08246 30-267): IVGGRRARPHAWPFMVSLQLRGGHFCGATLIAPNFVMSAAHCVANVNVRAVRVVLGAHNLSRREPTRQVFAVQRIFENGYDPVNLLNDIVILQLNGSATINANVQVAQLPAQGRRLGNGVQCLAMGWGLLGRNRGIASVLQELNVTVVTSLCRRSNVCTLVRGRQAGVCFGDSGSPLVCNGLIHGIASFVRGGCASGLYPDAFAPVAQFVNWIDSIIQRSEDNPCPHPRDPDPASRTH
Briefly: Inhibition constant Ki* of human leukocyte elastase (HLE), calculated as koff/kon. The assay is classed as biochemical. The conditions noted are these: unit inferred.

Experimental: Thus, instead of measuring a Ki, a Ki * is calculated which is defined as the ratio of the koff /kon, the rate of reactivation of the enzyme to the rate of inactivation of the enzyme. The values of koff and kon are measured and Ki * is then calculated.
The rate of inactivation, kon, of enzymatic activity was determined for the compounds tested by measuring the enzyme activity of an aliquot of the respective enzyme as a function of time after addition of the test compound. […] The rate of inactivation is then equal to [formula] where [I] is the concentration of the inhibiting compound.
The reactivation constant, koff, is similarly determined, and the inhibition constant, Ki *, is then calculated as

In the case of `CCOP(=O)(OCC)OCN1C(=O)c2c(C(C)C)cc(OC)cc2S1(=O)=O` [Example 13], the Ki was 0.035 nM.

As a reminder, the Ki is the equilibrium dissociation constant of an inhibitor or competing ligand from its target.
